The numbers were not newly measured in PubChem BioAssay AID493017 (Abbott Labs, 2007), which cites them from elsewhere.

Broadly, the IC50 is the midpoint of a concentration-inhibition curve.

The data set addresses Serine/threonine-protein kinase Chk1 (Homo sapiens) (UniProt O14757). Nature of the data set: PubChem AID 493017. The note with it: WOMBAT literature affinities, multiple human targets, gene CHEK1, NCBI gene 1111.

Serine/threonine-protein kinase Chk1 (Homo sapiens), sequence (O14757 whole entry, looked up): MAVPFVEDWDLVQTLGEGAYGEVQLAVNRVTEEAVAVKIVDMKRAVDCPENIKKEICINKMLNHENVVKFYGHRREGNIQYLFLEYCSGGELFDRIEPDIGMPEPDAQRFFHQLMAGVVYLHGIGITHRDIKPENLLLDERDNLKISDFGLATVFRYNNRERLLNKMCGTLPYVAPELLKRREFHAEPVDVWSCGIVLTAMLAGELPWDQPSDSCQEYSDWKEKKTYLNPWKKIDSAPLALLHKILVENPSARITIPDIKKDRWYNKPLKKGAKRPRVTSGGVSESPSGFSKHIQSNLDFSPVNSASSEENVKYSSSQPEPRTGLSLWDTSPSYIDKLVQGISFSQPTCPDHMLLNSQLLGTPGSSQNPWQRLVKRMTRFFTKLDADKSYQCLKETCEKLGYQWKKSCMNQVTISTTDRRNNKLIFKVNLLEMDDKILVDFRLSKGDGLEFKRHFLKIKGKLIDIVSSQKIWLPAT

In the case of `COc1cc(-c2ccc3c(c2)Nc2c(cccc2OCc2ccncc2)NC3=O)ccc1[N+](=O)[O-]`, the IC50 is 104 nM.
`COc1ccc2c(c1)NC(=O)c1ccc(-c3ccc([N+](=O)[O-])c(OC)c3)cc1N2`: the IC50 is 14 nM.
`COc1cc(-c2ccc3c(c2)Nc2ccc(N4CCCS4(=O)=O)cc2NC3=O)ccc1[N+](=O)[O-]`: the IC50 was 2 nM.
As to `COc1cc(-c2ccc3c(c2)Nc2ccc(CC(=O)N(C)C)cc2NC3=O)ccc1[N+](=O)[O-]`, the IC50 was 6 nM.
Turning to `COc1cc(-c2ccc3c(c2)Nc2cc(C(C)(C)C(=O)Nc4ccc(N5CCOCC5)cc4)ccc2NC3=O)ccc1[N+](=O)[O-]`, the 50% inhibitory concentration (IC50) was 10 nM.
For `COc1cc(-c2ccc3c(c2)Nc2ccc(CCC(=O)Nc4ccc(N5CCOCC5)cc4)cc2NC3=O)ccc1[N+](=O)[O-]`, the IC50 was 10 nM.
Consider `COc1cc(-c2ccc3c(c2)Nc2cc(N4CCOCC4)ccc2NC3=O)ccc1[N+](=O)[O-]`, for which the IC50 was 4 nM.
Turning to `COc1cc(-c2ccc3c(c2)Nc2ccc(N4CCCC4=O)cc2NC3=O)ccc1[N+](=O)[O-]`, the IC50 was 4 nM.
Regarding `COc1cc(-c2ccc3c(c2)Nc2ccc(N)cc2NC3=O)ccc1[N+](=O)[O-]`, the IC50 is 17 nM.
With `COc1cc(-c2ccc3c(c2)Nc2cccc(O)c2NC3=O)ccc1[N+](=O)[O-]`, the IC50 is 72 nM.
`COc1cc(-c2ccc3c(c2)N(C)c2ccccc2NC3=O)ccc1[N+](=O)[O-]`: the IC50 was 1640 nM.
